Measurements published in article PMC11459959, “Discovery of new acetamide derivatives of 5-indole-1,3,4-oxadiazol-2-thiol as inhibitors of HIV-1 Tat-mediated viral transcription” (Antimicrobial Agents and Chemotherapy, 2024).
Where two headings read alike, the source gives them in different places.

Columns and labels:
[1] = system: Tat-mediated LTR transcription; test: Dual-reporter assay, F-Luc (Tat-mediated LTR transcription) in bl-DTR cells; assay type: cell-based, HIV-1; settings: for inhibitory effect on Tat (in words): F-Luc; for IC50: Human immunodeficiency virus 1, 24 h, read-out: IC50 of F-Luc (Tat)
Experimental: (§1) Fig 1 (A) (Top panel) Schematic representation of the primary compound screening using a dual-reporter system. […] (B). […] (Top graphs) bl-DTR cells (1 × 10^4) were treated with twofold serial dilutions of each compound before doxycycline (Dox) addition (final concentration, 50 ng/mL). After 24 h of treatment, the activities of firefly luciferase (F-Luc, red line) and Renilla luciferase (R-Luc, blue line) were determined using the Dual-Glo Luciferase assay system. (Bottom graphs) TZM-bl cells were treated with each indicated compound and subsequently infected with the HIV-1NL4-3 strain at a multiplicity of infection (MOI) of 1. At 48 h after infection, the viral infectivity (purple line) and cell viability (green line) were determined using the Bright-Glo luciferase assay kit and the PrestoBlue Cell Viability Reagent, respectively. […] (C). […] The targeted moieties for the SAR study are marked with dotted-circle lines.
(§2) The Tzm-bl-derived dual Tat reporter; TZM-bl/Tat/Rluc (bl-DTR) cells were established from TZM-bl cells using two Dox-inducible lentiviral expression cassettes cloned with Flag-tagged Tat86 and the R-Luc gene, as described in our previous study ([11]). TZM-bl, A3.01, J1.1, and J-Lat 6.3 cells as well as the HIV-1 molecular clone pNL4-3, pNL(AD8), ARV-resistant HIV-1 strains, and HIV-1NL43-IRES-eGFP (pBR43IeG-nef^+, gifted by Dr. Frank Kirchhoff) ([52]) were provided by the National Institute of Health HIV Reagent Program (NIH, Bethesda, MD, USA). HeLa (CCL-2) and 293T (CRL-3216) cell lines were purchased from the American Type Culture Collection (ATCC, Manassas, VA, USA). The bl-DTR, TZM-bl, HeLa, and 293T cells were cultured in Dulbecco’s modified Eagle’s medium supplemented with 1% penicillin–streptomycin and 10% (vol/vol) heat-inactivated fetal bovine serum (all from Gibco-BRL, Gaithersburg, MD, USA), and 1 µg/mL of puromycin and 200 µg/mL of zeocin were additionally supplemented for the bl-DTR cells. PBMCs were purchased from AllCells (Alameda, CA, USA) and cultured as previously described ([12]). The information on ARV-resistant HIV-1 strains was described in previous reports as follows: NNRTI-resistant 12241 and 12243 ([53]); NRTI-resistant 7396, 7406, and 7407 ([54]); INSTI-resistant 11847 and 11849 ([55], [56]); and PI-resistant 11800 and 11803 ([57]). Each molecular HIV-1 clone was transfected to 293T cells, as previously described ([58]), to obtain infectious HIV-1 particles. Virus-containing cell culture supernatants were collected 3 days after transfection, and filtered through a 0.45-µm membrane filter (Millipore Sigma, Burlington, MA, USA) to remove cell debris. The viral titration was performed as described previously ([59]) with some minor modifications. In brief, 1 × 10^4 TZM-bl cells seeded in 96-well plates were infected with 200 µL of virus-containing medium diluted serially twofold. The incubation was for 2 days and the experiment was performed in triplicate; the infection time minimized the virus spread ([59]). The titration of the infectious viral particles was performed with a ß-Gal staining assay using the ßeta-Galactosidase Staining Kit (Mirus Bio, Madison, WI, USA) following the manufacturer’s protocols. In brief, the infected cells were washed with phosphate-buffered saline (PBS) and fixed using a Cell Fixative Working solution. The cells were washed with PBS and stained using the Cell Staining Working Solution containing X-gal. The infected blue-colored cells were counted under a microscope (100× magnification). The infectious virus titer was determined as a mean value of blue-colored cells count × dilution factor and used for determining the multiplicity of infection (MOI) in each infection experiment.

HIV-1NL4-3 = test: HIV-1 infectivity in TZM-bl cells (F-Luc); assay type: cell-based; settings: for inhibitory effect on HIV-1 infection (in words) / SI (CC50/EC50): TZM-bl cells; for inhibitory effect on HIV-1 infection (in words): HIV-1NL4-3; for EC50: Human immunodeficiency virus 1, TZM-bl, 48 h, TZM-bl cells infected with HIV-1NL4-3 at MOI 1, 48 h, F-Luc, mean ± SD
[2] = system: general cellular transcription/translation (R-Luc); test: Dual-reporter assay, R-Luc in bl-DTR cells; assay type: cell-based; settings: doxycycline, 24 h
Experimental: as §1, §2

[3] = Cell viability of TZM-bl cells (PrestoBlue); assay type: cell-based; settings: human
Experimental: The TZM-bl cells (also referred to as JC53BL-13) expressing human CD4, CXCR4, and CCR5 carrying the F-Luc and lacZ genes downstream of the HIV-1 LTR promoter ([60]) were used to determine the inhibitory effect of the compounds on HIV-1 infection, as previously described ([11], [12], [61]). In brief, 1 × 10^4 cells were cultured in 96-well plates for 24 h and subsequently treated with compounds at the indicated concentrations. Without replacement of the culture medium, the cells were subsequently infected with the HIV-1NL4-3 wild-type or ARV-resistant HIV-1 strains at an MOI of 1 to determine the exact inhibitory effect of compounds on a single-round infection. After 48 h, the inhibitory effect of the compounds was determined using a Bright Glo luciferase assay kit (Promega) or β-Galactosidase Enzyme Assay kit (Promega). The infectivity data were presented as a percentage relative to the dimethyl sulfoxide (DMSO) control (vehicle). Cell viability was determined using the resazurin-based PrestoBlue Cell Viability Reagent (Thermo Fisher Scientific, Waltham, MA, USA) following the manufacturer’s instructions.

[4] = system: HIV-1NL4-3 IRES-eGFP-nef+; test: eGFP-encoding HIV-1 infection of TZM-bl cells; assay type: cell-based; settings: 9, 10, 13 1.5 μM, 20, 21, 22 4 μM, seliciclib 10 µM, triptolide 5 nM, DTG 2 nM, EFV 2 nM, 2 days
Experimental: Fig 4 (A) Comparison of the chemical structures between prominent derivatives (9, 10, and 13) and non-functional derivatives (20, 21 and 22). (B) bl-DTR cells were treated with serial dilutions of each compound upon Dox for 24 h. The activities of F-Luc and R-Luc were determined using the Dual-Glo -Luciferase assay system. (C) TZM-bl cells were infected with the HIV-1NL4-3 strain at an MOI of 1 upon treatment of compounds. At 48 h after infection, the viral infectivity and cell viability were determined as described above (Fig. 1). (D) TZM-bl cells were infected with HIV-1NL4-3 IRES-eGFP virus along with the compound treatment. Two days later, GFP-expressing cells were observed by fluorescence microscopy (100× magnification). […] At 48 h after infection, the β-gal activity indicating viral infectivity was determined using the β-gal Enzyme Assay kit. F-Luc activity and cell viability were determined as described above (Fig. 4C). (C and E) The dose-response curves show the relative activity compared with that of the DMSO vehicle (mean ± SD; n = 3).

With “1-(Pyrrolidin-1-yl)-2-((5-(1,2,3-trimethyl-1H-indol-5-yl)-1,3,4-oxadiazol-2-yl)thio)ethan-1-one [Compound 19]” the “inhibitory effect on Tat (in words)” value ([1]; bl-DTR cells) was “did not demonstrate any biological effect” and the “inhibitory effect on HIV-1 infection (in words)” value (HIV-1NL4-3) was “did not demonstrate any biological effect”.

With Cc1[nH]c2ccc(-c3nnc(SCCC(=O)O)o3)cc2c1C [Compound B, 3-((5-(2,3-Dimethyl-1H-indol-5-yl)-1,3,4-oxadiazol-2-yl)thio)propanoic acid] the IC50 [1] was 2.29 ± 0.08 µM, the “Relative R-Luc activity at IC50 of F-Luc” value [2] was greater than 100 and the EC50 (HIV-1NL4-3; read-out: EC50) was 2.63 ± 0.34 µM. The “SI (CC50/EC50)” value (HIV-1NL4-3) was 16.97 and the CC50 at 48 h [3] was 44.6 ± 5.68 µM.

In the case of CC(=O)O[C@@]12C[C@@H](C)[C@@]3(O)[C@@H](C=C(CO)C[C@]4(O)C(=O)C(C)=C[C@@H]34)[C@@H]1C2(C)C [prostratin, reference compound], the “LTR activity increase induced by adding prostratin” value ([1]; bl-DTR cells, Dox, sustained in the presence of compounds 9 or 13) is reported as ~ 1.5 fold.

In the case of Cc1[nH]c2ccc(-c3nnc(SC(C)(C)C(=O)N4CCCCC4)o3)cc2c1C [Compound 12, 2-((5-(2,3-Dimethyl-1H-indol-5-yl)-1,3,4-oxadiazol-2-yl)thio)-2-methyl-1-(piperidin-1-yl)propan-1-one], the “inhibitory effect on Tat (in words)” value ([1]; bl-DTR cells) is reported as “increased” and the “inhibitory effect on HIV-1 infection (in words)” value (HIV-1NL4-3) is reported as “increased”.

In the case of Cc1[nH]c2ccc(-c3nnc(SCC(=O)N4CCCC(C)C4)o3)cc2c1C (stereo not shown) [Compound 10, 2-((5-(2,3-Dimethyl-1H-indol-5-yl)-1,3,4-oxadiazol-2-yl)thio)-1-(3-methylpiperidin-1-yl)ethan-1-one], the IC50 [1] is reported as 1.1 ± 0.07 µM, the “Relative R-Luc activity at IC50 of F-Luc” value [2] is reported as greater than 100 and the EC50 (HIV-1NL4-3; read-out: EC50) is reported as 0.56 ± 0.05 µM. For the same compound, the “SI (CC50/EC50)” value (HIV-1NL4-3) was 147.27, the CC50 at 48 h [3] was 82.5 ± 6.41 µM and the “inhibition of viral-expressed eGFP signal” value [4] was “remarkably inhibited”.

With “2-((5-(2,3-Dimethyl-1H-indol-5-yl)-1,3,4-oxadiazol-2-yl)thio)-1-(pyrrolidin-1-yl)propan-1-one [Compound 15]” the “inhibitory effect on Tat (in words)” value ([1]; bl-DTR cells) was “increased” and the “inhibitory effect on HIV-1 infection (in words)” value (HIV-1NL4-3) was “increased”.

For Cc1[nH]c2ccc(-c3nnc(SCCN4CCCC4)o3)cc2c1C [Compound 25, 2-(2,3-Dimethyl-1H-indol-5-yl)-5-((2-(pyrrolidin-1-yl)ethyl)thio)-1,3,4-oxadiazole], the “inhibitory effect on Tat (in words)” value ([1]; bl-DTR cells) was “no effect was observed” and the “inhibitory effect on HIV-1 infection (in words)” value (HIV-1NL4-3) was “no effect was observed”.

With Cc1[nH]c2ccc(-c3nnc(SC(C)C(=O)N4CCCCC4)o3)cc2c1C (stereo not shown) [Compound 11, 2-((5-(2,3-Dimethyl-1H-indol-5-yl)-1,3,4-oxadiazol-2-yl)thio)-1-(piperidin-1-yl)propan-1-one] the IC50 [1] was 0.43 ± 0.03 µM, the “Relative R-Luc activity at IC50 of F-Luc” value [2] was 100 and the EC50 (HIV-1NL4-3; read-out: EC50) was 0.4 ± 0.05 µM. The “SI (CC50/EC50)” value (HIV-1NL4-3) was 67.85 and the CC50 at 48 h [3] was 27.1 ± 1.95 µM.

O=C(O)CCSc1nnc(-c2cccc3ccccc23)o1 [Compound A, 3-((5-(Naphthalen-1-yl)-1,3,4-oxadiazol-2-yl)thio)propanoic acid] gave an IC50 [1] of 4 µM and an EC50 (HIV-1NL4-3) of 4.19 µM.

With Cc1[nH]c2ccc(-c3nnc(SC(C)C(=O)N4CCCCC4)n3CCc3ccccc3)cc2c1C (stereo not shown) [Compound 30, 2-((5-(2,3-Dimethyl-1H-indol-5-yl)-4-phenethyl-4H-1,2,4-triazol-3-yl)thio)-1-(piperidin-1-yl)propan-1-one] the IC50 [1] was 1.74 ± 0.06 µM, the “Relative R-Luc activity at IC50 of F-Luc” value [2] was 100 and the EC50 (HIV-1NL4-3; read-out: EC50) was 2.01 ± 0.11 µM. The “SI (CC50/EC50)” value (HIV-1NL4-3) was 11.26 and the CC50 at 48 h [3] was 22.6 ± 0.47 µM.

For Cc1[nH]c2ccc(-c3nnc(SC(C)C(=O)N4CCCC4)o3)cc2c1C (stereo not shown) [Compound 14, 2-((5-(2,3-Dimethyl-1H-indol-5-yl)-1,3,4-oxadiazol-2-yl)thio)-1-(pyrrolidin-1-yl)propan-1-one], the IC50 [1] was 3.82 ± 0.12 µM, the “Relative R-Luc activity at IC50 of F-Luc” value [2] was greater than 100 and the EC50 (HIV-1NL4-3; read-out: EC50) was 3.31 ± 0.28 µM. For the same compound, the “SI (CC50/EC50)” value (HIV-1NL4-3) was 17.44 and the CC50 at 48 h [3] was 57.7 ± 6.01 µM.

With Cc1[nH]c2ccc(-c3nnc(SCCN4CCCCC4)o3)cc2c1C [Compound 24, 2-(2,3-Dimethyl-1H-indol-5-yl)-5-((2-(piperidin-1-yl)ethyl)thio)-1,3,4-oxadiazole] the IC50 [1] was 1.97 ± 0.03 µM, the “inhibitory effect on Tat (in words)” value ([1]; bl-DTR cells) was “modest inhibitory effect” and the “Relative R-Luc activity at IC50 of F-Luc” value [2] was greater than 100. The EC50 (HIV-1NL4-3; read-out: EC50) was 3.02 ± 0.09 µM, the “SI (CC50/EC50)” value (HIV-1NL4-3) was 13.34 and the CC50 at 48 h [3] was 40.3 ± 1.74 µM.

With Cc1[nH]c2ccc(-c3nnc(SCC(=O)N4CCCC4)n3CCc3ccccc3)cc2c1C [Compound 31, 2-((5-(2,3-Dimethyl-1H-indol-5-yl)-4-phenethyl-4H-1,2,4-triazol-3-yl)thio)-1-(pyrrolidin-1-yl)ethan-1-one] the IC50 [1] was 3.42 ± 0.12 µM, the “Relative R-Luc activity at IC50 of F-Luc” value [2] was greater than 100 and the EC50 (HIV-1NL4-3; read-out: EC50) was 5.89 ± 0.05 µM. For the same compound, the “SI (CC50/EC50)” value (HIV-1NL4-3) was 9.39 and the CC50 at 48 h [3] was 55.3 ± 10.2 µM.

In the case of Cc1[nH]c2ccc(-c3nnc(SCC(=O)N4CCCCC4)n3C)cc2c1C [Compound 28, 2-((5-(2,3-Dimethyl-1H-indol-5-yl)-4-methyl-4H-1,2,4-triazol-3-yl)thio)-1-(piperidin-1-yl)ethan-1-one], the IC50 [1] is reported as 13.7 ± 0.53 µM, the “inhibitory effect on Tat (in words)” value ([1]; bl-DTR cells) is reported as “critical decrease of potency” and the “Relative R-Luc activity at IC50 of F-Luc” value [2] is reported as 90. The EC50 (HIV-1NL4-3; read-out: EC50) was 21.2 ± 1.47 µM, the “SI (CC50/EC50)” value (HIV-1NL4-3) was 1.74 and the “inhibitory effect on HIV-1 infection (in words)” value (HIV-1NL4-3) was “critical decrease of potency”. It also gave a CC50 at 48 h [3] of 36.8 ± 12.6 µM.

With Cc1[nH]c2ccc(-c3nnc(S(=O)(=O)CC(=O)N4CCCC4)o3)cc2c1C [Compound 22, 2-((5-(2,3-Dimethyl-1H-indol-5-yl)-1,3,4-oxadiazol-2-yl)sulfonyl)-1-(pyrrolidin-1-yl)ethan-1-one] the “inhibition of viral-expressed eGFP signal” value [4] was “did not”.

For Cc1[nH]c2ccc(-c3nnc(S)o3)cc2c1C [Compound 3b, 5-(2,3-Dimethyl-1H-indol-5-yl)-1,3,4-oxadiazole-2-thiol], the “inhibitory effect on Tat (in words)” value ([1]; bl-DTR cells) was “did not exhibit a substantial biological effect” and the “inhibitory effect on HIV-1 infection (in words)” value (HIV-1NL4-3) was “did not exhibit a substantial biological effect”.
